Experimental data as given in the supplement of paper PMC10307832.

Assays:
Test in all cases: relative viability (nuclei count vs DMSO), 5 days (fraction); higher = more cells survive
[1] = compound: Cc1cnc(Nc2ccc(OCCN3CCCC3)cc2)nc1Nc1cccc(S(=O)(=O)NC(C)(C)C)c1 [Fedratinib] + CS(=O)(=O)CCNCc1ccc(-c2ccc3ncnc(Nc4ccc(OCc5cccc(F)c5)c(Cl)c4)c3c2)o1 [Lapatinib] (partner 2 µM)
Procedure, shortened: (§1)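 The day after seeding in 1536-well plates, lung cancer cell lines were treated by pin tool with a single drug, or with a fixed anchor-drug dose together with five library-drug doses (not always all listed) in √10 steps. After 5 days, a combined fix-and-stain solution (final 0.05% Triton X-100, 1% formaldehyde, 1 ug/ml Hoechst) was added. Nuclei counted on 4× images gave relative viability as treated counts over vehicle counts, reported as the median of duplicate plates.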

[2] = compound: COC1=CC=C(C=C1)COC2=C(C=C(C=C2)CC3=CN=C(N=C3N)N)OC [GW-2580] + O=C(c1cc(Cc2n[nH]c(=O)c3ccccc23)ccc1F)N1CCN(C(=O)C2CC2)CC1 [Olaparib] (partner 8 µM)
Procedure, shortened: as §1

[3] = compound: Cc1cnc(Nc2ccc(OCCN3CCCC3)cc2)nc1Nc1cccc(S(=O)(=O)NC(C)(C)C)c1 [Fedratinib] + CS(=O)(=O)N1CCN(Cc2cc3nc(-c4cccc5[nH]ncc45)nc(N4CCOCC4)c3s2)CC1 [Pictilisib] (partner 1 µM)
Procedure, shortened: as §1

[4] = compound: COC1=CC=C(C=C1)COC2=C(C=C(C=C2)CC3=CN=C(N=C3N)N)OC [GW-2580] + Nc1nc2[nH]cc(CCc3ccc(C(=O)N[C@@H](CCC(=O)O)C(=O)O)cc3)c2c(=O)[nH]1 [Pemetrexed] (partner 0.2 µM)
Procedure, shortened: as §1

[5] = compound: Cc1cnc(Nc2ccc(OCCN3CCCC3)cc2)nc1Nc1cccc(S(=O)(=O)NC(C)(C)C)c1 [Fedratinib] + CC(C)C[C@H](NC(=O)[C@H](Cc1ccccc1)NC(=O)c1cnccn1)B(O)O [Bortezomib] (partner 0.002 µM)
Procedure, shortened: as §1

Row | Cell Line | relative viability ([1]; first compound 0.1 µM) | relative viability ([1]; first compound 0.3162 µM) | relative viability ([1]; first compound 1 µM) | relative viability ([2]; first compound 0.08 µM) | relative viability ([2]; first compound 0.8 µM) | relative viability ([2]; first compound 2.53 µM) | relative viability ([2]; first compound 8 µM) | relative viability ([3]; first compound 0.1 µM) | relative viability ([3]; first compound 0.3162 µM) | relative viability ([3]; first compound 1 µM) | relative viability ([4]; first compound 0.08 µM) | relative viability ([4]; first compound 0.8 µM) | relative viability ([4]; first compound 2.53 µM) | relative viability ([4]; first compound 8 µM) | relative viability ([5]; first compound 0.1 µM) | relative viability ([5]; first compound 0.3162 µM) | relative viability ([5]; first compound 1 µM)
1 | 201T | 1.01 | 0.944 | 0.976 | 0.896 | 0.73 | 0.887 | 0.794 | 0.679 | 0.705 | 0.601 | 0.371 | 0.351 | 0.329 | 0.346 | 1.01 | 1.07 | 1.08
2 | A549 | 1.16 | 0.907 | 0.875 | 0.396 | 0.527 | 0.267 | 0.301 | 0.531 | 0.465 | 0.434 |  |  |  |  |  |  | 
3 | A-427 | 1.06 | 0.984 | 0.591 | 0.76 | 0.711 | 0.756 | 0.737 | 0.639 | 0.758 | 0.329 | 0.936 | 1.19 | 0.842 | 0.76 | 0.95 | 0.889 | 0.558
4 | ABC-1 | 1.28 | 1.16 | 1.46 | 0.774 | 0.634 | 1.43 | 0.824 | 0.694 | 0.809 | 0.318 |  |  |  |  | 0.339 | 0.363 | 0.186
5 | BEN | 0.665 | 0.585 | 0.543 | 0.877 | 1.12 | 1.03 | 0.962 | 0.477 | 0.575 | 0.498 | 1.91 | 0.762 | 0.615 | 0.702 | 0.673 | 0.607 | 0.559
6 | CAL-12T | 0.688 | 0.698 | 0.607 | 0.743 | 0.817 | 0.726 | 0.69 | 0.454 | 0.615 | 0.162 | 1.32 | 1.53 | 1.24 | 1.13 | 0.963 | 1.07 | 0.805
7 | COR-L23 | 1.04 | 0.999 | 1.07 | 0.422 | 0.375 | 0.294 | 0.406 | 0.891 | 0.809 | 0.707 | 0.197 | 0.196 | 0.205 | 0.194 | 1.14 | 0.975 | 0.938
8 | COR-L 105 | 0.297 | 0.379 | 0.336 | 0.658 | 0.633 | 0.909 | 0.68 | 0.364 | 0.471 | 0.284 | 1.26 | 1.08 | 1.21 | 0.962 | 0.685 | 0.839 | 0.289
9 | Calu-6 | 1.29 | 1 | 0.945 | 0.657 | 0.663 | 0.559 | 0.636 | 0.845 | 0.866 | 0.736 |  |  |  |  | 1.05 | 0.981 | 0.771
10 | ChaGo-K-1 |  |  |  | 0.423 | 0.457 | 0.388 | 0.393 | 0.487 | 1 | 0.289 | 0.274 | 0.256 | 0.267 | 0.262 | 0.932 | 1.1 | 0.777
11 | EBC-1 | 0.175 | 0.193 | 0.177 | 0.837 | 0.734 | 0.664 | 0.59 | 0.27 | 0.33 | 0.251 |  |  |  |  | 0.478 | 0.501 | 0.39
12 | EKVX | 0.209 | 0.206 | 0.252 | 0.905 | 0.986 | 0.812 | 0.89 | 0.497 | 0.426 | 0.504 | 0.434 | 0.392 | 0.355 | 0.358 | 1.11 | 1.11 | 1.06
13 | EMC-BAC-2 | 1 | 0.901 | 0.909 | 0.477 | 0.514 | 0.429 | 0.462 | 0.499 | 0.575 | 0.538 | 0.503 | 0.43 |  | 0.502 | 1.14 | 1.01 | 1.09
14 | EPLC-272H | 0.958 | 1.01 | 0.119 | 0.819 | 0.861 | 0.755 | 0.605 | 0.257 | 0.35 | 0.0901 | 0.325 | 0.283 | 0.342 | 0.329 | 0.946 | 0.83 | 0.451
15 | H3255 | 0.216 | 0.231 | 0.218 | 0.618 | 0.607 | 0.566 | 0.508 | 0.42 | 0.48 | 0.432 | 0.553 | 0.609 | 0.554 | 0.552 | 0.63 | 0.742 | 0.605
16 | HARA | 0.75 | 0.627 | 0.384 | 0.624 | 1.19 | 0.895 | 0.726 | 0.348 | 0.422 | 0.306 | 0.289 | 0.254 | 0.29 | 0.299 | 1.41 | 1.18 | 0.404
17 | HCC-15 | 0.879 | 0.876 | 0.446 | 0.841 | 0.628 | 0.66 | 0.75 | 0.581 | 0.713 | 0.28 | 0.228 | 0.235 | 0.235 | 0.251 | 1.04 | 0.963 | 0.469
